Activity calls are given as the source filed them. The rule behind the calls is not given here.
Assays:
[1] = system: MV4-11; experiment: Antiproliferative activity against human MV4-11 cells assessed as inhibition of cell growth at […] incubated for 72 to 144 hrs by trypan blue staining based analysis; format: functional; details: dose 2.5 µM, time 72-144 hrs
[2] = system: MV4-11; experiment: Induction of cell cycle arrest in human MV4-11 cells assessed as accumulation of cells at G1 phase at 0.2 to […] incubated for 24 hrs; format: functional, cell-based; details: dose 0.2-2.5 µM
[3] = molecular target: Lysine-specific histone demethylase 1A (Homo sapiens) (UniProt O60341); experiment: Inhibition of LSD1 in human RD cells assessed as increase in H3K4me2 level at 2 uM incubated for 48 hrs by Western blot analysis; format: cell-based
[4] = system: RD; experiment: Induction of apoptosis in human RD cells assessed as increase in caspase 3/7 level at 4 uM incubated for 24 hrs; format: functional, cell-based
[5] = system: SJRH30; experiment: Antiproliferative activity against human Rh30 cells assessed as inhibition of cell growth incubated for 144 hrs; format: functional, cell-based; details: SJRH30, 144 h
[6] = system: RD; experiment: Antiproliferative activity against human RD cells assessed as inhibition of cell growth incubated for 144 hrs; format: functional, cell-based
[7] = system: RD; experiment: Antiproliferative activity against human RD cells assessed as inhibition of cell growth incubated for 24 hrs; format: functional, cell-based
[8] = system: MDA-MB-231; experiment: Antiproliferative activity against human MDA-MB-231 cells assessed as inhibition of cell growth measured after 72 hrs by MTT assay; format: functional, cell-based; details: MDA-MB-231, 72 h
[9] = system: RD; experiment: Antiproliferative activity against human RD cells assessed as inhibition of cell growth incubated for 72 hrs; format: functional, cell-based
[10] = system: THP-1; experiment: Antiproliferative activity against human THP-1 cells assessed as inhibition of cell growth incubated for 24 hrs by CellTiter-Glo luminescent cell viability assay; format: functional, cell-based; details: THP-1, 24 h
[11] = system: SJRH30; experiment: Antiproliferative activity against human Rh30 cells assessed as inhibition of cell growth incubated for 72 hrs; format: functional, cell-based; details: SJRH30, 72 h
[12] = system: THP-1; experiment: Antiproliferative activity against human THP-1 cells assessed as inhibition of cell growth incubated for 144 hrs by CellTiter-Glo luminescent cell viability assay; format: functional, cell-based; details: THP-1, 144 h
[13] = molecular target: T1, Histone-lysine N-methyltransferase EHMT2 (Homo sapiens, UniProt Q96KQ7); experiment: Inhibition of G9a (unknown origin) assessed as reduction in substrate methylation using histone H3 and SAM as substrate measured after 15 to 60 mins by microfluidic capillary electrophoresis analysis
T1 sequence (Q96KQ7 whole entry): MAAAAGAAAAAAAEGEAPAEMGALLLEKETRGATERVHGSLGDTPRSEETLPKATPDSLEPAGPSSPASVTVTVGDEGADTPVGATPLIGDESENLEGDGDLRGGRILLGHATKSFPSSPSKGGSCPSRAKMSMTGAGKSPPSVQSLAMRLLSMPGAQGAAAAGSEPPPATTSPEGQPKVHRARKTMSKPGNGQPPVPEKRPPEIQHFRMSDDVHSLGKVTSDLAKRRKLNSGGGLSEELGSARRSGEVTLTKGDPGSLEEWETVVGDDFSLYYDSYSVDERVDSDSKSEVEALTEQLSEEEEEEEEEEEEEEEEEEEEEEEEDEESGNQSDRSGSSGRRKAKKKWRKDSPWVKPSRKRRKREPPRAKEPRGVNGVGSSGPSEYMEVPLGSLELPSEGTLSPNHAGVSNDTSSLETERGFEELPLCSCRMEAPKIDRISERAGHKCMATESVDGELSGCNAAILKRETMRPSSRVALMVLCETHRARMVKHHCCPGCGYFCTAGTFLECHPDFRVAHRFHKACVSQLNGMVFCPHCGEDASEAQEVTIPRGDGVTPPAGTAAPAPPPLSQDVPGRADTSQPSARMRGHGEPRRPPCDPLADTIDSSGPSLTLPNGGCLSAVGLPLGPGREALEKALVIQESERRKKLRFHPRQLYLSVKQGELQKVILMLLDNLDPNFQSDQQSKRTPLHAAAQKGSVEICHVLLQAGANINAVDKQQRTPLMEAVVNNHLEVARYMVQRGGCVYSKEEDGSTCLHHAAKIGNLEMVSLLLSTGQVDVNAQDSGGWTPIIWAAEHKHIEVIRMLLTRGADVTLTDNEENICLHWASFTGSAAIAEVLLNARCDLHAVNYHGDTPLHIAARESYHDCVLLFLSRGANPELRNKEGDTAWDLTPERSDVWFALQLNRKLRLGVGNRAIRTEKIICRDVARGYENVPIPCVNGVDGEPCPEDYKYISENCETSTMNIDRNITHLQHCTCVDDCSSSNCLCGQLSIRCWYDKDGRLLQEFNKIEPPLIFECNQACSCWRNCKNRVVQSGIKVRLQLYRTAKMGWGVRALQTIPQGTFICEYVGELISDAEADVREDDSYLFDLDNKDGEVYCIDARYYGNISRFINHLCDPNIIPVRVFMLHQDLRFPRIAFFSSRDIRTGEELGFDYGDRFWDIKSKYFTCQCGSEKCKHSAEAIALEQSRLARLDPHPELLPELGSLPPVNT

[14] = system: RD; experiment: Antiproliferative activity against human RD cells assessed as reduction in live cells at 4 uM incubated for 72 hrs by calceinAM/propidium iodide staining based fluorescence microscopy; format: functional, cell-based
[15] = molecular target: Lysine-specific histone demethylase 1A (Homo sapiens) (UniProt O60341); experiment: Inhibition of LSD1 in human Rh30 cells assessed as increase in H3K4me2 level at 2 uM incubated for 48 hrs by Western blot analysis; format: cell-based
[16] = molecular target: Lysine-specific histone demethylase 1A (Homo sapiens) (UniProt O60341); experiment: Inhibition of LSD1 in human MV4-11 cells assessed as increase in CD86 expression level incubated for 24 hrs by qRT-PCR analysis; format: cell-based; details: dose 0.2-1 µM
[17] = system: SJRH30; experiment: Antiproliferative activity against human Rh30 cells assessed as reduction in live cells at 4 uM incubated for 24 hrs by calceinAM/propidium iodide staining based fluorescence microscopy; format: functional, cell-based
[18] = system: SJRH30; experiment: Antiproliferative activity against human Rh30 cells assessed as inhibition of cell growth incubated for 24 hrs; format: functional, cell-based; details: SJRH30, 24 h
[19] = molecular target: T2, LSD1/CoREST complex (Homo sapiens, UniProt O60341); experiment: Binding affinity to human LSD1/CoREST assessed as dissociation constant by competitive fluorescence polarization assay; format: protein-complex assay
[20] = molecular target: Lysine-specific histone demethylase 1A (Homo sapiens) (UniProt O60341); experiment: Inhibition of LSD1 in human MV4-11 cells assessed as increase in H3K4me2 level at 0.2 to […] incubated for 24 hrs by Western blot analysis; format: cell-based; details: dose 0.2-2.5 µM
[21] = Cytotoxicity against human derived mesenchymal stem cells assessed as residual cell viability at 1.25 uM measured after 72 hrs relative to control; format: toxicity, cell-based; details: read-out: Activity
[22] = system: THP-1; experiment: Antiproliferative activity against human THP-1 cells assessed as inhibition of cell growth incubated for 72 hrs by CellTiter-Glo luminescent cell viability assay; format: functional, cell-based; details: THP-1, 72 h
[23] = system: SJRH30; experiment: Induction of apoptosis in human Rh30 cells assessed as increase in caspase 3/7 level at 4 uM incubated for 24 hrs; format: functional, cell-based
[24] = molecular target: T2, LSD1/CoREST complex; experiment: Inhibition of human LSD1/CoREST using histone H3 peptide as substrate by fluorescence polarization assay; format: protein-complex assay
[25] = system: MV4-11; experiment: Induction of apoptosis in human MV4-11 cells assessed as accumulation of cells at sub-G1 phase incubated for 24 hrs; format: functional, cell-based; details: dose 0.2-25 µM, DDE = dose-dependent effect
[26] = molecular target: Histone-lysine N-methyltransferase, H3 lysine-79 specific (Homo sapiens) (UniProt Q8TEK3); experiment: Inhibition of […] (unknown origin) using [3H]SAM and HeLa oligo nucleosomes as substrates at 100 uM incubated for 1 hr relative to control
[27] = molecular target: T3, MAO-B (amine oxidase [flavin-containing] B) (Homo sapiens, UniProt P27338); experiment: Inhibition of human MAO-B using p-tyramine as substrate at 100 uM by fluorimetric analysis relative to control; details: human MAO-B enzyme, probe p-tyramine
T3 sequence (P27338 whole entry): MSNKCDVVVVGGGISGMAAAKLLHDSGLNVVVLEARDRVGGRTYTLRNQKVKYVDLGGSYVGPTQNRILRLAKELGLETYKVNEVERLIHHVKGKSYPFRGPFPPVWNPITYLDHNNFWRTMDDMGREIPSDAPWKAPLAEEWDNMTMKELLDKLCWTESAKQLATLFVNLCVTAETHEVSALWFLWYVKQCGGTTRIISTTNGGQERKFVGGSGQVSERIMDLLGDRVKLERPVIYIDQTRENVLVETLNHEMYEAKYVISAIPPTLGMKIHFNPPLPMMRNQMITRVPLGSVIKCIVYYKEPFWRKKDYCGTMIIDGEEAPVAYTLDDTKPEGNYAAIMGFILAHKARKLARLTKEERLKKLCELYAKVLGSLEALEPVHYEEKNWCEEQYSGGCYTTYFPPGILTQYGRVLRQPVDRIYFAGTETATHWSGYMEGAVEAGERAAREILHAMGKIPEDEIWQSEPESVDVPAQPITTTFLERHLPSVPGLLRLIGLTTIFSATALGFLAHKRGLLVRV

[28] = molecular target: T4, MAO-A (amine oxidase [flavin-containing] A) (Homo sapiens, UniProt P21397); experiment: Inhibition of human MAO-A using p-tyramine as substrate at 100 uM by fluorimetric analysis relative to control; details: human MAO-A enzyme, probe p-tyramine
T4 sequence (P21397 whole entry): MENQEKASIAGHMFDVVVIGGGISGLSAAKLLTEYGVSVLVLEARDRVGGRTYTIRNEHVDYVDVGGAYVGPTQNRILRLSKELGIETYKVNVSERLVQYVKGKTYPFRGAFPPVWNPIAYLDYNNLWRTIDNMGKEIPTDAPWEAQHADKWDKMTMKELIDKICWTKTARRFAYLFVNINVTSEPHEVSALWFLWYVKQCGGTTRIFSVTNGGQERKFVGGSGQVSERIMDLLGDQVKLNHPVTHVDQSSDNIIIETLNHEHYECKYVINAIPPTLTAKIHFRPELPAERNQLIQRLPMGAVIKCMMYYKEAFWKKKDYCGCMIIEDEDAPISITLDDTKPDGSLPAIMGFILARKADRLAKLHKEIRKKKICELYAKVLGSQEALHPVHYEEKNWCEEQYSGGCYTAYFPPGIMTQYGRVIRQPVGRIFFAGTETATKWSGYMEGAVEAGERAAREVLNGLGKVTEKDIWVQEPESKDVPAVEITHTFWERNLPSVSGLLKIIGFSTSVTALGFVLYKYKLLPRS

[29] = molecular target: Histone-lysine N-methyltransferase EZH2 (Homo sapiens) (UniProt Q15910); experiment: Inhibition of EZH2 (unknown origin) using [3H]SAM and chicken core histone as substrates at 100 uM incubated for 1 hr relative to control
[30] = system: SJRH30; experiment: Antiproliferative activity against human Rh30 cells assessed as reduction in live cells at 3.5 uM incubated for 24 hrs by calceinAM/propidium iodide staining based fluorescence microscopy; format: functional, cell-based
[31] = system: SJRH30; experiment: Induction of apoptosis in human Rh30 cells assessed as increase in caspase 3/7 level at 3.5 uM incubated for 24 hrs; format: functional, cell-based
[32] = system: RD; experiment: Antiproliferative activity against human RD cells assessed as reduction in live cells at 3.5 uM incubated for 72 hrs by calceinAM/propidium iodide staining based fluorescence microscopy; format: functional, cell-based

Sequence of Histone-lysine N-methyltransferase EZH2 (Homo sapiens) (Q15910 whole entry, looked up): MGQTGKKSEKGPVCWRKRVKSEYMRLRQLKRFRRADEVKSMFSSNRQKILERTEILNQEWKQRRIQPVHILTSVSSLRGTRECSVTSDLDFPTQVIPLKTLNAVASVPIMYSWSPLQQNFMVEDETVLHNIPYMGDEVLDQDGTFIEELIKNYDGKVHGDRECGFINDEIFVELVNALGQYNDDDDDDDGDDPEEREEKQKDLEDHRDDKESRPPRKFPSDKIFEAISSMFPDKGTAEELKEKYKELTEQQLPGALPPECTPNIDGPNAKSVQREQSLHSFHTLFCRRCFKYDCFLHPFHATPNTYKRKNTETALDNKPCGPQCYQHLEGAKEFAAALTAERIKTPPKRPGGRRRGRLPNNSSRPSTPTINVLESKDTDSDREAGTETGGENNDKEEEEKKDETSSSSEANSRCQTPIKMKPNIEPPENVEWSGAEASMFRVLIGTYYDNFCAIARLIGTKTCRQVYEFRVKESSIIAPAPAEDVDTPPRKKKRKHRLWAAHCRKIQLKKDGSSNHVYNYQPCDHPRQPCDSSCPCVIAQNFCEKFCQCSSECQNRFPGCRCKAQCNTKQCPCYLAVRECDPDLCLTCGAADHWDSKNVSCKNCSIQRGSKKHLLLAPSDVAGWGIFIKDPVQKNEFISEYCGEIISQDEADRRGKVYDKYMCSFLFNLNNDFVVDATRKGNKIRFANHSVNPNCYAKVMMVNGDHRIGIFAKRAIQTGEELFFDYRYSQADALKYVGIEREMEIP
Sequence of Histone-lysine N-methyltransferase, H3 lysine-79 specific (Homo sapiens) (Q8TEK3 whole entry, looked up): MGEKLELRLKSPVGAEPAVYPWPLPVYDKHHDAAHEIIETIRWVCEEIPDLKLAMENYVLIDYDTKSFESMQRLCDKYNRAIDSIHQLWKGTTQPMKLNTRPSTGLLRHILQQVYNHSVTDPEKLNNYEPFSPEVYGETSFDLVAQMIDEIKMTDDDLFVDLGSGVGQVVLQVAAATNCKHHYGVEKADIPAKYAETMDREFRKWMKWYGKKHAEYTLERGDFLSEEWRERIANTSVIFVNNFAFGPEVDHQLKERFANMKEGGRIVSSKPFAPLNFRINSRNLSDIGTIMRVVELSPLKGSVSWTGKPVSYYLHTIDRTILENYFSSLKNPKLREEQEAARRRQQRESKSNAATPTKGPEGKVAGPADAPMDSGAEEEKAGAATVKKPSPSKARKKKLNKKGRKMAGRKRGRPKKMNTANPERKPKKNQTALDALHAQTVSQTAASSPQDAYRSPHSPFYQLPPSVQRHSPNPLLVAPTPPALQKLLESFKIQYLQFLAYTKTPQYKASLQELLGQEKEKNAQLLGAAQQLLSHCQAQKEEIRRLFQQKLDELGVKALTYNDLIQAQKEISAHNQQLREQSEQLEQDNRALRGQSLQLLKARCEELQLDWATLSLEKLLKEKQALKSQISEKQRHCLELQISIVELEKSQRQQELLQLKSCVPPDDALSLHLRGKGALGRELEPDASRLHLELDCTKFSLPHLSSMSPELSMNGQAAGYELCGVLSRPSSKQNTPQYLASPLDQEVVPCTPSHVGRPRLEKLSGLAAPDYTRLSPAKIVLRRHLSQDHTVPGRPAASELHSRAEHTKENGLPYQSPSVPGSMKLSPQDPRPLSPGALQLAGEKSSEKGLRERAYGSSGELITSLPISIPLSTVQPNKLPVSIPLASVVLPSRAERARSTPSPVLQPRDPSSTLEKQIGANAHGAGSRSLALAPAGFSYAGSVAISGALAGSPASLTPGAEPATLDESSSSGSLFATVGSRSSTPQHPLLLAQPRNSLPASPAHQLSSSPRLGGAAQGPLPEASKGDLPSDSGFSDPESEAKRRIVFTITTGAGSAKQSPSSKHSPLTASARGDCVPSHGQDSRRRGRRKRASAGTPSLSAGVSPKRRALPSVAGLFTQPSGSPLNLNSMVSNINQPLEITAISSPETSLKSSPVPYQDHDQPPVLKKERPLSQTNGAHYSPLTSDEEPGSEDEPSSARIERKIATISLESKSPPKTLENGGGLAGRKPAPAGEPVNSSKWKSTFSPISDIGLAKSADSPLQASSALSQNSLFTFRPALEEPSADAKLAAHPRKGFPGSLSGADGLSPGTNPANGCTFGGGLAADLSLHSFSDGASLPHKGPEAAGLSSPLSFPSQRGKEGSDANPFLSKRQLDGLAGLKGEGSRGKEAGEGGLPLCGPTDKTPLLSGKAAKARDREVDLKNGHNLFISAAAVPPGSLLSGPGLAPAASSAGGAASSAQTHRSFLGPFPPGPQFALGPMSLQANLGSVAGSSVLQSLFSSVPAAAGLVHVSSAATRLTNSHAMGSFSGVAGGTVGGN

IC50 [8] [nM] | IC50 [10] [nM] | IC50 [12] [nM] | Ki [13] [nM] | IC50 [22] [nM] | Compound | IC50 [5] [nM] | IC50 [6] [nM] | IC50 [7] [nM] | IC50 [9] [nM] | IC50 [11] [nM] | IC50 [18] [nM] | also measured
3400 | 420 | 160 | 26100 | 340 | C#CCN(C)CCCNc1nc(NC2CCN(Cc3ccccc3)CC2)c2cc(OC)c(OC)cc2n1 | 1420 | 1420 | 4560 | 1920 | 1530 | 1760 | inhibition [1]: Active; Activity [2]: Active; inhibition [3]: Active; Activity [4]: Active; Activity [14]: Active; inhibition [15]: Active; inhibition [16]: Active; Activity [17]: Active; Kd [19]: 64 nM; inhibition [20]: Active; viability at 72 h, 1.25 µM [21]: 96%; Activity [23]: Active; Ki [24]: 153 nM; Activity [25]: Dde
800 | 490 | 220 | 690 | 390 | COc1cc2nc(NCCCN(C)C)nc(NC3CCN(CCCc4ccccc4)CC3)c2cc1OC | – | – | – | – | – | – | inhibition [26]: 30.3%; inhibition at 100 µM [27]: 0.3%; inhibition at 100 µM [28]: 7.4%; inhibition [29]: 2.9%
3560 | 840 | 240 | – | 340 | COc1cc2c(NC3CCN(C(C)C)CC3)nc(C3CCCCC3)nc2cc1OCCCN1CCCC1 | 2480 | 2910 | 11200 | 3050 | 2640 | 5010 | Activity [30]: Active; Activity [31]: Active; Activity [32]: Active

From ChEMBL document CHEMBL5120862, “Novel non-covalent LSD1 inhibitors endowed with anticancer effects in leukemia and solid tumor cellular models” (Eur J Med Chem, 2022)
